Results reported in patent US20120202794A1 (priority 2011, published 2012).

Tests used:
[1] = Cell cytotoxicity assay (MTS), CC90 as reported in Table 1, cell line not stated; assay type: cell-based; conditions: human; MTS assay; 8 days incubation; cell line not given
Method in brief: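 Compounds, serially diluted from 100 μM, were incubated 8 days at 37° C with Huh7, HepG2 or BxPC3 (2×10^3 cells/well) or CEM (5×10^3 cells/well). Viability was read by MTS, 2 h, absorbance 490 nm. CC90 (90% inhibition) was taken against untreated cells.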

HCV Replicon 1b = experiment: HCV inhibition assay, HCV replicon 1b (Clone A or ET-lunet cells; RT-PCR or luciferase reporter); assay type: cell-based; conditions: Hepatitis C virus, 96 h, HCV replicon 1b; 4 days incubation; read-out: Replicon 1b potency EC90
Method in brief: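 Clone A (1500/well) or ET-lunet (3000/well) replicon cells treated with serially diluted compounds (0.5% DMSO, no G418) for 4 days at 37 °C. HCV RNA measured by one-step RT-PCR normalized to rRNA (ΔΔCt) or by luciferase luminescence versus DMSO controls; EC50/EC90 by curve fitting.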

Question: Which results are given for `CC(C)C[C@H]1C(=O)N[C@@H](c2ccccc2Cl)CN1C(=O)[C@@H]1C[C@H]1c1ccccc1` [Compound 354, (3S,6S)-6-(2-chlorophenyl)-3-isobutyl-4-((1R,2R)-2-phenylcyclopropanecarbonyl)-piperazin-2-one]?
Answer: CC90 at 8 days [1]: > 10 µM; EC90 (HCV Replicon 1b): 1.85 µM

Question: For `CC(C)C[C@H]1C(=O)N[C@@H](c2ccccc2F)CN1C(=O)[C@@H]1C[C@H]1c1ccccc1` [Compound 357, (3S,6S)-6-(2-fluorophenyl)-3-isobutyl-4-((1R,2R)-2-phenylcyclopropanecarbonyl)-piperazin-2-one], which CC90 at 8 days [1] is on record?
Answer: Its CC90 at 8 days is > 10 µM.

Question: What about the EC90 (HCV Replicon 1b) of the same compound?
Answer: Its EC90 is 0.52 µM.

Question: What does the source list for `CC(C)C[C@H]1C(=O)N[C@@H](c2ccc(Cl)cc2)CN1C(=O)c1cc(-c2ccc(F)cc2)on1` [Compound 358, (3S,6S)-6-(4-chlorophenyl)-4-(5-(4-fluorophenyl)isoxazole-3-carbonyl)-3-isobutyl-piperazin-2-one]?
Answer: CC90 at 8 days [1]: > 10 µM; EC90 (HCV Replicon 1b): 1.53 µM

Question: With `CC(C)C[C@H]1C(=O)N[C@@H](c2ccc(Cl)cc2)CN1C(=O)[C@@H]1C[C@H]1c1ccccc1` [Compound 360, (3S,6S)-6-(4-chlorophenyl)-3-isobutyl-4-((1R,2R)-2-phenylcyclopropanecarbonyl)-piperazin-2-one] as the compound, how does the CC90 at 8 days [1] read?
Answer: Its CC90 at 8 days is > 10 µM.

Question: And the EC90 (HCV Replicon 1b)?
Answer: Its EC90 is 3.64 µM.

Question: For `Cc1ccccc1[C@H]1CN(C(=O)c2cc(-c3ccc(F)cc3)on2)[C@@H](CC(C)C)C(=O)N1` [Compound 361, (3S,6S)-4-(5-(4-fluorophenyl)isoxazole-3-carbonyl)-3-isobutyl-6-(o-tolyl)piperazin-2-one], which CC90 at 8 days [1] is on record?
Answer: Its CC90 at 8 days is > 10 µM.

Question: And the EC90 (HCV Replicon 1b)?
Answer: Its EC90 is 1.42 µM.

Question: What does the source list for `Cc1ccccc1[C@H]1CN(C(=O)[C@@H]2C[C@H]2c2ccccc2)[C@@H](CC(C)C)C(=O)N1` [Compound 363, (3S,6S)-3-isobutyl-4-((1R,2R)-2-phenylcyclopropanecarbonyl)-6-(o-tolyl)piperazin-2-one]?
Answer: CC90 at 8 days [1]: > 10 µM; EC90 (HCV Replicon 1b): 2.07 µM

Question: Which results are given for `CC(C)C[C@H]1C(=O)N[C@@H](c2ccc(C(F)(F)F)cc2)CN1C(=O)[C@@H]1C[C@H]1c1ccccc1` [Compound 364, (3S,6S)-3-isobutyl-4-((1R,2R)-2-phenylcyclopropanecarbonyl)-6-(4-(trifluoro-methyl)phenyl)piperazin-2-one]?
Answer: CC90 at 8 days [1]: > 10 µM; EC90 (HCV Replicon 1b): > 10 µM

Question: What does the source list for `CC(C)C[C@H]1C(=O)N[C@@H](c2ccc(C(F)(F)F)cc2)CN1C(=O)c1cc(-c2ccc(F)cc2)on1` [Compound 366, (3S,6S)-4-(5-(4-fluorophenyl)isoxazole-3-carbonyl)-3-isobutyl-6-(4-(trifluoromethyl)-phenyl)piperazin-2-one]?
Answer: CC90 at 8 days [1]: > 10 µM; EC90 (HCV Replicon 1b): 6 µM

Question: Which results are given for `CC(C)C[C@H]1C(=O)N[C@@H](c2cccc(F)c2)CN1C(=O)c1cc(-c2ccc(F)cc2)on1` [Compound 367, (3S,6S)-6-(3-fluorophenyl)-4-(5-(4-fluorophenyl)isoxazole-3-carbonyl)-3-isobutylpiperazin-2-one]?
Answer: CC90 at 8 days [1]: > 10 µM; EC90 (HCV Replicon 1b): 0.27 µM

Question: Which CC90 at 8 days [1] does the source give for `CC(C)C[C@H]1C(=O)N[C@@H](c2cccc(F)c2)CN1C(=O)[C@@H]1C[C@H]1c1ccccc1` [Compound 369, (3S,6S)-6-(3-fluorophenyl)-3-isobutyl-4-((1R,2R)-2-phenylcyclopropanecarbonyl)-piperazin-2-one] here?
Answer: The CC90 at 8 days was > 10 µM.

Question: What about the EC90 (HCV Replicon 1b) of the same compound?
Answer: The EC90 was 1.63 µM.

Question: With `CC(C)C[C@H]1C(=O)N[C@@H](c2ccccc2Cl)CN1C(=O)c1noc(-c2ccc(F)cc2)n1` [Compound 371, (3S,6S)-6-(2-chlorophenyl)-4-(5-(4-fluorophenyl)-1,2,4-oxadiazole-3-carbonyl)-3-isobutylpiperazin-2-one] as the compound, how does the CC90 at 8 days [1] read?
Answer: Its CC90 at 8 days is > 10 µM.

Question: What about the EC90 (HCV Replicon 1b) of the same compound?
Answer: Its EC90 is 0.47 µM.

Question: For `CC(C)C[C@H]1C(=O)N[C@@H](c2ccccc2F)CN1C(=O)c1cc(-c2ccc(F)cc2)no1` [Compound 372, (3S,6S)-6-(2-fluorophenyl)-4-(3-(4-fluorophenyl)isoxazole-5-carbonyl)-3-isobutylpiperazin-2-one], which CC90 at 8 days [1] is on record?
Answer: The CC90 at 8 days was > 10 µM.

Question: And the EC90 (HCV Replicon 1b)?
Answer: The EC90 was 0.7 µM.

Question: What does the source list for `CC(C)C[C@H]1C(=O)N[C@@H](c2ccccc2F)CN1C(=O)/C=C/c1ccc(F)cc1F` [Compound 374, (3S,6S)-4-((E)-3-(2,4-difluorophenyl)acryloyl)-6-(2-fluorophenyl)-3-isobutylpipera-zin-2-one]?
Answer: CC90 at 8 days [1]: > 10 µM; EC90 (HCV Replicon 1b): 0.75 µM

Question: Which results are given for `CC(C)C[C@H]1C(=O)N[C@@H](c2ccccc2)CN1C(=O)c1noc(-c2ccc(F)cc2)c1F` [Compound 376, (3S,6S)-4-(4-fluoro-5-(4-fluorophenyl)isoxazole-3-carbonyl)-3-isobutyl-6-phenyl-piperazin-2-one]?
Answer: CC90 at 8 days [1]: > 10 µM; EC90 (HCV Replicon 1b): 0.5 µM

Question: Which CC90 at 8 days [1] does the source give for `CC(C)C[C@H]1CN(C(=O)c2noc(-c3ccc(F)cc3)c2F)[C@@H](CC(C)C)C(=O)N1` [Compound 379, (3S,6S)-4-(4-fluoro-5-(4-fluorophenyl)isoxazole-3-carbonyl)-3,6-diisobutylpiperazin-2-one] here?
Answer: Its CC90 at 8 days is > 10 µM.

Question: And the EC90 (HCV Replicon 1b)?
Answer: Its EC90 is 0.21 µM.

Question: What does the source list for `CC(C)C[C@H]1C(=O)N[C@@H](c2ccccc2F)CN1C(=O)c1noc(-c2ccc(F)cc2)c1F` [Compound 380, (3S,6S)-4-(4-fluoro-5-(4-fluorophenyl)isoxazole-3-carbonyl)-6-(2-fluorophenyl)-3-isobutylpiperazin-2-one]?
Answer: CC90 at 8 days [1]: > 10 µM; EC90 (HCV Replicon 1b): 0.18 µM

Question: Which results are given for `CC(C)C[C@H]1C(=O)N[C@@H](C2CCCC2)CN1C(=O)c1noc(-c2ccc(F)cc2)c1F` [Compound 381, (3S,6S)-6-cyclopentyl-4-(4-fluoro-5-(4-fluorophenyl)isoxazole-3-carbonyl)-3-isobutylpiperazin-2-one]?
Answer: CC90 at 8 days [1]: > 10 µM; EC90 (HCV Replicon 1b): 0.25 µM

Question: With `CC(C)C[C@H]1C(=O)N[C@@H](C2CCCCC2)CN1C(=O)c1noc(-c2ccc(F)cc2)c1F` [Compound 382, (3S,6S)-6-cyclohexyl-4-(4-fluoro-5-(4-fluorophenyl)isoxazole-3-carbonyl)-3-isobutylpiperazin-2-one] as the compound, how does the CC90 at 8 days [1] read?
Answer: The CC90 at 8 days was > 10 µM.

Question: What about the EC90 (HCV Replicon 1b) of the same compound?
Answer: The EC90 was 0.37 µM.

Question: With `CC(C)C[C@H]1CN(C(=O)c2noc(-c3ccc(F)cc3F)c2F)[C@@H](CC(C)C)C(=O)N1` [Compound 383, (3S,6S)-4-(5-(2,4-difluorophenyl)-4-fluoroisoxazole-3-carbonyl)-3,6-diisobutyl-piperazin-2-one] as the compound, how does the CC90 at 8 days [1] read?
Answer: The CC90 at 8 days was > 10 µM.

Question: What about the EC90 (HCV Replicon 1b) of the same compound?
Answer: The EC90 was 0.71 µM.

Question: Which results are given for `CC(C)C[C@H]1C(=O)N[C@@H](c2ccccc2)CN1C(=O)c1noc(-c2ccc(F)cc2F)c1F` [Compound 385, (3S,6S)-4-(5-(2,4-difluorophenyl)-4-fluoroisoxazole-3-carbonyl)-3-isobutyl-6-phenylpiperazin-2-one]?
Answer: CC90 at 8 days [1]: > 10 µM; EC90 (HCV Replicon 1b): 0.5 µM

Question: What does the source list for `CC(C)C[C@H]1C(=O)N[C@@H](c2ccccc2F)CN1C(=O)c1noc(-c2ccc(F)cc2F)c1F` [Compound 386, (3S,6S)-4-(5-(2,4-difluorophenyl)-4-fluoroisoxazole-3-carbonyl)-6-(2-fluorophenyl)-3-isobutylpiperazin-2-one]?
Answer: CC90 at 8 days [1]: > 10 µM; EC90 (HCV Replicon 1b): 0.57 µM

Question: Which CC90 at 8 days [1] does the source give for `CCC[C@H]1CN(C(=O)c2noc(-c3ccc(F)cc3F)c2F)[C@@H](CC(C)C)C(=O)N1` [Compound 387, (3S,6S)-4-(5-(2,4-difluorophenyl)-4-fluoroisoxazole-3-carbonyl)-3-isobutyl-6-propylpiperazin-2-one] here?
Answer: The CC90 at 8 days was > 10 µM.

Question: And the EC90 (HCV Replicon 1b)?
Answer: Its EC90 is 0.26 µM.

Question: What does the source list for `CC(C)C[C@H]1C(=O)N[C@@H](C2CCCC2)CN1C(=O)c1noc(-c2ccc(F)cc2F)c1F` [Compound 388, (3S,6S)-6-cyclopentyl-4-(5-(2,4-difluorophenyl)-4-fluoroisoxazole-3-carbonyl)-3-isobutylpiperazin-2-ono]?
Answer: CC90 at 8 days [1]: > 10 µM; EC90 (HCV Replicon 1b): 0.67 µM

Question: What does the source list for `CC(C)C[C@H]1C(=O)N[C@@H](C2CCCCC2)CN1C(=O)c1noc(-c2ccc(F)cc2F)c1F` [Compound 389, (3S,6S)-6-cyclohexyl-4-(5-(2,4-difluorophenyl)-4-fluoroisoxazole-3-carbonyl)-3-isobutylpiperazin-2-one]?
Answer: CC90 at 8 days [1]: > 10 µM; EC90 (HCV Replicon 1b): 1.45 µM

Question: With `CC(C)C[C@H]1C(=O)N[C@@H](c2ccccc2)CN1C(=O)c1noc(-c2ccc(F)c(F)c2)c1F` [Compound 390, (3S,6S)-4-(5-(3,4-difluorophenyl)-4-fluoroisoxazole-3-carbonyl)-3-isobutyl-6-phenylpiperazin-2-one] as the compound, how does the CC90 at 8 days [1] read?
Answer: Its CC90 at 8 days is > 10 µM.

Question: And the EC90 (HCV Replicon 1b)?
Answer: The EC90 was 2.05 µM.

Question: Which results are given for `CC(C)C[C@H]1C(=O)N[C@@H](c2ccccc2F)CN1C(=O)c1noc(-c2ccc(F)c(F)c2)c1F` [Compound 392, (3S,6S)-4-(5-(3,4-difluorophenyl)-4-fluoroisoxazole-3-carbonyl)-6-(2-fluorophenyl)-3-isobutylpiperazin-2-one]?
Answer: CC90 at 8 days [1]: > 10 µM; EC90 (HCV Replicon 1b): 1.91 µM

Question: Which CC90 at 8 days [1] does the source give for `CCC[C@H]1CN(C(=O)c2noc(-c3ccc(F)c(F)c3)c2F)[C@@H](CC(C)C)C(=O)N1` [Compound 393, (3S,6S)-4-(5-(3,4-difluorophenyl)-4-fluoroisoxazole-3-carbonyl)-3-isobutyl-6-propylpiperazin-2-one] here?
Answer: Its CC90 at 8 days is > 10 µM.

Question: What about the EC90 (HCV Replicon 1b) of the same compound?
Answer: The EC90 was 0.26 µM.

Question: For `CC(C)C[C@H]1CN(C(=O)c2noc(-c3ccc(F)c(F)c3)c2F)[C@@H](CC(C)C)C(=O)N1` [Compound 394, (3S,6S)-4-(5-(3,4-difluorophenyl)-4-fluoroisoxazole-3-carbonyl)-3,6-diisobutyl-piperazin-2-one], which CC90 at 8 days [1] is on record?
Answer: Its CC90 at 8 days is > 10 µM.

Question: What about the EC90 (HCV Replicon 1b) of the same compound?
Answer: Its EC90 is 0.66 µM.

Question: For `CC(C)C[C@H]1C(=O)N[C@@H](C2CCCC2)CN1C(=O)c1noc(-c2ccc(F)c(F)c2)c1F` [Compound 395, (3S,6S)-6-cyclopentyl-4-(5-(3,4-difluorophenyl)-4-fluoroisoxazole-3-carbonyl)-3-isobutylpiperazin-2-one], which CC90 at 8 days [1] is on record?
Answer: Its CC90 at 8 days is > 10 µM.

Question: And the EC90 (HCV Replicon 1b)?
Answer: The EC90 was 1.02 µM.
